Laboratory results: ChEMBL document CHEMBL1201862, “PubChem BioAssay data set” (2004)
pIC50: −log10 of the molar value. Active and inactive are the calls of the source.

Columns and labels:
[1] = target: Potassium voltage-gated channel subfamily KQT member 2 (Rattus norvegicus, UniProt O88943, W236L); experiment: potentiation of rat KCNQ2 current – cell-based, automated electrophysiology, mechanism study for KCNQ2 potentiator project, dose response (AID 2603); format: functional
Cytochrome P450 2D6 = Cytochrome P450 2D6 (Homo sapiens, UniProt P10635);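 also: CYP2D6 member of a cytochrome P450 panel assay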
Beta-galactosidase [2] = target: T1, Beta-galactosidase (Escherichia coli, UniProt Q8VNN2); experiment: detection-enzyme interference by beta-gal modulators – biochemical, E. coli enzyme, set 3, artefact control for CCR6 antagonist project, dose response (AID 504712); format: functional
Trypanosoma cruzi = experiment: anti-trypanosomal activity in host cells – cell-based, plate reader, dry powder, set 3, dose response (AID 493197); format: functional
[3] = NIH/3T3 cell viability loss – mouse embryonic fibroblasts, dry powder, set 2, cytotoxicity control, dose response (AID 493247); format: functional, cell-based; conditions: Fibroblast
[4] = target: T2, Voltage-gated N-type calcium channel alpha-1B subunit/Amyloid beta A4 precursor protein-binding family A member 1 (Homo sapiens, UniProt Q00975+Q02410); format: protein assay
[5] = reduction of Shn3 3'UTR-driven luciferase in osteoblasts – cell-based, Clone20 osteoblasts, firefly luciferase, cherry-picked, dose response (AID 624132); format: functional;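 also: firefly luciferase luminescence from reporter carrying the Shn3 3'UTR in osteoblasts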
[6] = loss of viability in HepG2 cells – cell-based, CellTiter-Glo, cherry-picked, cytotoxicity control for Shn3 inhibitor project, dose response (AID 624134); format: functional
[7] = target: T2, Voltage-gated N-type calcium channel alpha-1B subunit/Amyloid beta A4 precursor protein-binding family A member 1; format: protein assay; remark: listed apart in the source
[8] = non-specific 3'UTR reporter inhibition in Clone20-Shn3RL – cell-based, Renilla luciferase, cherry-picked, counter-screen for Shn3 inhibitor project, dose response (AID 624133); format: functional
Protein RecA = target: T3, Protein RecA (Mycobacterium tuberculosis, UniProt P9WHJ3); experiment: Fluorescence Cell-Free Homogeneous Dose Retest to Identify Inhibitors of RecA-Intein Splicing Activity. [Related pubchem assays (depositor defined):AID2097, AID2223, AID489010, AID492950]; format: functional
T3 sequence (P9WHJ3 whole entry): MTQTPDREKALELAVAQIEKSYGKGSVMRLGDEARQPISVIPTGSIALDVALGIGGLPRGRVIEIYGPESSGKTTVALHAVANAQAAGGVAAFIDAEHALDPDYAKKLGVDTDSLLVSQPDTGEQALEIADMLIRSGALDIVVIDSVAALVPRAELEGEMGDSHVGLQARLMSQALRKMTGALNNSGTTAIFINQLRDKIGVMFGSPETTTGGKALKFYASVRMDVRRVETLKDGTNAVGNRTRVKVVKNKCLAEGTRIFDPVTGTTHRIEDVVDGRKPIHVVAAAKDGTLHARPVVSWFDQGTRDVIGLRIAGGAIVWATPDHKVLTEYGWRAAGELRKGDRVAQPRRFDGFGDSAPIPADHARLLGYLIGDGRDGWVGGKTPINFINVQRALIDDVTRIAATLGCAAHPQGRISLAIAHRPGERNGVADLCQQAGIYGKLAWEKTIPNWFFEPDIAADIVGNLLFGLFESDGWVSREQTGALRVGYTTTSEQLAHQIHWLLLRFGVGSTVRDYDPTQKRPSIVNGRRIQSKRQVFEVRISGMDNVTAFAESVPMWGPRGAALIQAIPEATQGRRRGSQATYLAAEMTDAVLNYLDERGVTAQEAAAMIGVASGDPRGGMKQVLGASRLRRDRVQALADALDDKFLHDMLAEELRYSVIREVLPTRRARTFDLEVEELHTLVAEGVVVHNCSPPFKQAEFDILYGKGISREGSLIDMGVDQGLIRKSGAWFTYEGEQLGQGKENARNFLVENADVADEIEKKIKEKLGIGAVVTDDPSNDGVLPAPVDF

Nonstructural protein 1 = Nonstructural protein 1 (Influenza A virus, UniProt Q194T2); format: functional, Influenza A virus (A/California/07/2009(H1N1))
[9] = DRD fibroblast viability loss – cell-based, non-viral oncogenic, luminescence, dose response (AID 1934); format: functional; conditions: Homo sapiens
[10] = blockers of HIV-1 envelope-mediated cell-cell fusion – cherry-pick, dose response (AID 652057); format: functional, cell-based
BJ [11] = experiment: cells; format: functional, cell-based; conditions: Homo sapiens
BJ [12] = experiment: BJ-TERT-LT-ST fibroblast viability loss – cell-based, RAS-independent, luminescence, dose response (AID 1935); format: functional; conditions: Homo sapiens;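 also: BJ fibroblasts immortalized with TERT plus LT and ST oncogenes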
INS1 = experiment: INS-1E survival protection against cytokine death – cell-based, luminescence, retest, dose response (AID 449756); format: functional; conditions: Rattus norvegicus;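 also: cell death triggered by IL-1 beta plus TNF-alpha plus IFN-gamma mixture; protective hits raise ATP signal compared with cytokine alone wells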
[13] = HIV-1 AD8 envelope cell-cell fusion blockers – cherry-pick, dose response (AID 652062); format: functional, cell-based;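 also: luciferase signal from cell-cell fusion driven by HIV-1 clade B AD8 Env; potency is for inhibitors of fusion seen as a drop in luminescence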
[14] = target: T4, Replicative DNA helicase DnaB (Mycobacterium tuberculosis, UniProt P9WMR3); experiment: DnaB intein splicing inhibitors, dose response, biochemical, cell-free fluorescence (AID 449749); format: functional
T4 sequence (P9WMR3 whole entry): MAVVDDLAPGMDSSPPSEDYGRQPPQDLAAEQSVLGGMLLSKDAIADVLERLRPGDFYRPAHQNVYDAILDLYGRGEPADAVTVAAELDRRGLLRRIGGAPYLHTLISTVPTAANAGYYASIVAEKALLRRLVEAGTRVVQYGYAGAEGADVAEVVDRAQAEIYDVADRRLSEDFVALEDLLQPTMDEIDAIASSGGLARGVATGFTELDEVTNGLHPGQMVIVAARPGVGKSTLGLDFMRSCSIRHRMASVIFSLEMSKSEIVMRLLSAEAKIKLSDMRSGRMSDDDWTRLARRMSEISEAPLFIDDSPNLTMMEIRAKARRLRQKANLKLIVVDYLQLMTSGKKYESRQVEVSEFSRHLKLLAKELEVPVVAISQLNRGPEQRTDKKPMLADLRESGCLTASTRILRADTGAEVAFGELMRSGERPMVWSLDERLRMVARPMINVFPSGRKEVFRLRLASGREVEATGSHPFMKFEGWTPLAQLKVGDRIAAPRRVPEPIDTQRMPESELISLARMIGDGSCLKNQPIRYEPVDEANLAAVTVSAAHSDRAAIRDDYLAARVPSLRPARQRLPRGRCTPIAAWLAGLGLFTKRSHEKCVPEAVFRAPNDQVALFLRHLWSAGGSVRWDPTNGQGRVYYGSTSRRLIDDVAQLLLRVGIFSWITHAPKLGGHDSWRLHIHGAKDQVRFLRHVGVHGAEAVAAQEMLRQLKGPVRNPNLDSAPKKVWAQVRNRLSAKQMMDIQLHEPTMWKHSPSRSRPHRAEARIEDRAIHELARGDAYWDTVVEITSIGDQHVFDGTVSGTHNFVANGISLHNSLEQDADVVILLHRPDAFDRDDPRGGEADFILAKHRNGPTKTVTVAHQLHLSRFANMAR

[15] = off-target signal loss in HeLa-CEM21 co-culture – HeLa F-luc CTL cells, cherry-picked, counter-screen for HIV-1 Env fusion inhibitor project, dose response (AID 652040); format: functional, cell-based;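 also: potency for signal decrease marking cytotoxic or nonspecific inhibition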
BJ [16] = experiment: BJ-TERT fibroblast viability loss – cell-based, RAS-independent, luminescence, dose response (AID 1933); format: functional; conditions: Homo sapiens
[17] = blockers of HIV-1 ZM109 envelope-driven cell-cell fusion – HeLa effector, CEM target cells, luciferase, cherry-pick, dose response (AID 652058); format: functional, cell-based;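 also: luciferase signal from HIV-1 Env mediated cell-cell fusion of effector and target cells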
[18] = viability loss in CEM21 cells – cell-based, CellTiter-Glo luminescence, cherry-picked, cytotoxicity control for viral fusion inhibitor project, dose response (AID 652042); format: functional;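 also: potency for signal decrease meaning cytotoxicity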
[19] = Intein inhibitors as potential Tuberculosis drugs, a cytotoxicity screen. [Related pubchem assays (depositor defined):AID2221, AID2223, AID434968, AID435010, AID449749, AID449750, AID489010]; format: functional
BJ [20] = experiment: growth inhibition of engineered Ras-driven BJ cells – cell-based, alamar blue fluorescence, cherrypicked samples, dose response (AID 2631); format: functional; conditions: Homo sapiens;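 also: confirmatory dose-response assay in RAS-dependent BJ fibroblasts engineered with TERT, LT and ST, with cytotoxicity read by fluorescence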
[21] = target: DNA dC->dU-editing enzyme APOBEC-3G (Homo sapiens, UniProt Q9HC16); format: functional;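 also: Dose-response counterscreen measuring inhibition of APOBEC3G DNA deaminase activity, run while confirming APOBEC3A inhibitors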
[22] = target: DNA dC->dU-editing enzyme APOBEC-3A (Homo sapiens, UniProt P31941); experiment: Dose Response confirmation of small molecule APOBEC3A DNA Deaminase Inhibitors via a fluorescence-based single-stranded DNA deaminase assay. [Related pubchem assays (depositor defined):AID493011, AID493024]; format: functional
Beta-galactosidase [23] = target: T1, Beta-galactosidase; format: functional
Aminopeptidase N = target: T5, Aminopeptidase N (Plasmodium falciparum FcB1/Columbia, UniProt O96935); experiment: malaria alanyl aminopeptidase activity blockers – biochemical, fluorogenic H-Leu-NHMec substrate, 1536-well (AID 1445); design: species or system Plasmodium falciparum 3D7, 3D7
T5 sequence (O96935 whole entry): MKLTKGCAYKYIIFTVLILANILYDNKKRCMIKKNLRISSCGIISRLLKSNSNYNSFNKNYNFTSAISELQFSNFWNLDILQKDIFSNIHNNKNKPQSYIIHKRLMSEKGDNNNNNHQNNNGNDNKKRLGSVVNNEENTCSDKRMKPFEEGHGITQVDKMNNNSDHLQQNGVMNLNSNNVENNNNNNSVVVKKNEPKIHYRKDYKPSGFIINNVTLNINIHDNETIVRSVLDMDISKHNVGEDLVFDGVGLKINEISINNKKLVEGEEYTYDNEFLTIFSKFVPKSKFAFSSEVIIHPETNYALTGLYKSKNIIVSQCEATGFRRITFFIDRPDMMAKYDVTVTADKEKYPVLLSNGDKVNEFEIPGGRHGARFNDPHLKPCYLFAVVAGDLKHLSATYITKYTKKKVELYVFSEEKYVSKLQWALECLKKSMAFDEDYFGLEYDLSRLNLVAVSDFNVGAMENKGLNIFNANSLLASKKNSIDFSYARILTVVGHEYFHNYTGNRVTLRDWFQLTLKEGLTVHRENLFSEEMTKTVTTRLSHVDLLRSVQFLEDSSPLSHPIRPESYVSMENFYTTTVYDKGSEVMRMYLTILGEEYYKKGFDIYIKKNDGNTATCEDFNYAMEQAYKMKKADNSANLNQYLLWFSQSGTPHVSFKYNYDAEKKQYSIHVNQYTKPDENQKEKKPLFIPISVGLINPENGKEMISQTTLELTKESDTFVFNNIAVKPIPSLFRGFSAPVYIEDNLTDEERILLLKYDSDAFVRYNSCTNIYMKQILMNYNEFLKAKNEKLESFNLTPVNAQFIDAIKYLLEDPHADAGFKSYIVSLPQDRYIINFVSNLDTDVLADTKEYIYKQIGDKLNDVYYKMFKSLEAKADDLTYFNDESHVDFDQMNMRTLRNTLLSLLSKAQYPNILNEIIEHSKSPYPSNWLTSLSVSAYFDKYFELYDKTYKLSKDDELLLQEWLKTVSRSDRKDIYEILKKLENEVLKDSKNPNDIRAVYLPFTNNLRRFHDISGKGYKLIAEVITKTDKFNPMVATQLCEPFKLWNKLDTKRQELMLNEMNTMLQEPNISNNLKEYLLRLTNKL

[24] = target: T6, Kappa-type opioid receptor (Homo sapiens, UniProt P41145); format: functional
Leucine aminopeptidase = target: T7, Leucine aminopeptidase (Plasmodium falciparum 3D7, UniProt Q8IL11); experiment: P. falciparum M17LAP inhibitors, primary screen, biochemical, fluorogenic H-Leu-NHMec substrate, 1536-well (AID 1619); format: functional
T7 sequence (Q8IL11 whole entry): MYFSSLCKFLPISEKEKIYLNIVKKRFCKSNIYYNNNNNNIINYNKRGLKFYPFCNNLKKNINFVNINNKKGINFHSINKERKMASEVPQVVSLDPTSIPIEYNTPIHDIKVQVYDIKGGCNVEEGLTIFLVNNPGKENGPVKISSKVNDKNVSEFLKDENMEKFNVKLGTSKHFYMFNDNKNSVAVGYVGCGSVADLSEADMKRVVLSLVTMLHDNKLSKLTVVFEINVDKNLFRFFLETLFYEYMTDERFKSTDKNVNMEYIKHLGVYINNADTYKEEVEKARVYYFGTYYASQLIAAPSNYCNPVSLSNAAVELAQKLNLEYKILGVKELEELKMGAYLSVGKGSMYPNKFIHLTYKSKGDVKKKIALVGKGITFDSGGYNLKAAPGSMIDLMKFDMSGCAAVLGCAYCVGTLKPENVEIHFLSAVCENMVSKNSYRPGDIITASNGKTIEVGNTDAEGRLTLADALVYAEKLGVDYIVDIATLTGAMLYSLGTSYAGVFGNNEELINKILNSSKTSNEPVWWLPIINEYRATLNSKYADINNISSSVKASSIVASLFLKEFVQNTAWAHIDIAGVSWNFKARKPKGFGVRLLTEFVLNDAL

[25] = target: T6, Kappa-type opioid receptor; format: functional; remark: listed apart in the source
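For CC50 in this document: cells exposed to compound for 72 hours before luminescence readout.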

T1 sequence (Q8VNN2 whole entry): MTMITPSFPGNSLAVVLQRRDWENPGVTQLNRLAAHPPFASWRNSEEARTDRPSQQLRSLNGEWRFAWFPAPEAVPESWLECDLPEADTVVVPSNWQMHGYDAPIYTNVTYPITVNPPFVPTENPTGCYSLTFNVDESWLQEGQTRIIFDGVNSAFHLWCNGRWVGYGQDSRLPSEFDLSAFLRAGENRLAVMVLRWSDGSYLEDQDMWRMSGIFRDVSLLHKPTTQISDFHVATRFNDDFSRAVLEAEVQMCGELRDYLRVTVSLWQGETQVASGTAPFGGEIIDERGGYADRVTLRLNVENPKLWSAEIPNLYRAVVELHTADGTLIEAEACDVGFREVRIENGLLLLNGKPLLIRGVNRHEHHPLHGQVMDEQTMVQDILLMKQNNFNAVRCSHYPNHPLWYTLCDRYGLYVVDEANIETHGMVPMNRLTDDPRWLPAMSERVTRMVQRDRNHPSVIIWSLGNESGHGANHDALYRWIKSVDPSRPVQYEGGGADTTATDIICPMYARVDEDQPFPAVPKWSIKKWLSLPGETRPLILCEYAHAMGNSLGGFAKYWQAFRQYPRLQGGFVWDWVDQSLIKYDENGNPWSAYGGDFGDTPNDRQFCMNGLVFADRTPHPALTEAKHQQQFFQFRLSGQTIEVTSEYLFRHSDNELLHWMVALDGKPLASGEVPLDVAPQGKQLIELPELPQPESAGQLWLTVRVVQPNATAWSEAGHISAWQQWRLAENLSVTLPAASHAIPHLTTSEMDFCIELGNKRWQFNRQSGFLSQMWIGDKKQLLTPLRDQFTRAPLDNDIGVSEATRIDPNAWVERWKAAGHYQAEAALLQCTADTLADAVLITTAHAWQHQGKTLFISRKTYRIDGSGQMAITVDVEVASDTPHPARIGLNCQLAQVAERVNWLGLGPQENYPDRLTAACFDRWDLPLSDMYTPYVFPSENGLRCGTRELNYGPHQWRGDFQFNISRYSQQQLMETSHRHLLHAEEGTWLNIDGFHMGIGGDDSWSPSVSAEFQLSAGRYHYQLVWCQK
T6 sequence (P41145 whole entry): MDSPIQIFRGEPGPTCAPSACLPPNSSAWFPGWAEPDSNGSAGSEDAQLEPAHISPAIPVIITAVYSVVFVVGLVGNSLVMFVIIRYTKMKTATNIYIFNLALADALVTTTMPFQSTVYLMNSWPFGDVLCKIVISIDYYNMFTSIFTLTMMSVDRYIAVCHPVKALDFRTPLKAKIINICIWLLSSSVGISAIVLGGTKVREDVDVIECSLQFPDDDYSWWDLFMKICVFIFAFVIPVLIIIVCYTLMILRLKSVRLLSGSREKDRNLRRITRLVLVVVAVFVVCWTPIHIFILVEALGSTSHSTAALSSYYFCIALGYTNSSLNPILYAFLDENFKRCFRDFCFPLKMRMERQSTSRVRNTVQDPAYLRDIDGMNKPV
T2 sequence (Q00975 whole entry): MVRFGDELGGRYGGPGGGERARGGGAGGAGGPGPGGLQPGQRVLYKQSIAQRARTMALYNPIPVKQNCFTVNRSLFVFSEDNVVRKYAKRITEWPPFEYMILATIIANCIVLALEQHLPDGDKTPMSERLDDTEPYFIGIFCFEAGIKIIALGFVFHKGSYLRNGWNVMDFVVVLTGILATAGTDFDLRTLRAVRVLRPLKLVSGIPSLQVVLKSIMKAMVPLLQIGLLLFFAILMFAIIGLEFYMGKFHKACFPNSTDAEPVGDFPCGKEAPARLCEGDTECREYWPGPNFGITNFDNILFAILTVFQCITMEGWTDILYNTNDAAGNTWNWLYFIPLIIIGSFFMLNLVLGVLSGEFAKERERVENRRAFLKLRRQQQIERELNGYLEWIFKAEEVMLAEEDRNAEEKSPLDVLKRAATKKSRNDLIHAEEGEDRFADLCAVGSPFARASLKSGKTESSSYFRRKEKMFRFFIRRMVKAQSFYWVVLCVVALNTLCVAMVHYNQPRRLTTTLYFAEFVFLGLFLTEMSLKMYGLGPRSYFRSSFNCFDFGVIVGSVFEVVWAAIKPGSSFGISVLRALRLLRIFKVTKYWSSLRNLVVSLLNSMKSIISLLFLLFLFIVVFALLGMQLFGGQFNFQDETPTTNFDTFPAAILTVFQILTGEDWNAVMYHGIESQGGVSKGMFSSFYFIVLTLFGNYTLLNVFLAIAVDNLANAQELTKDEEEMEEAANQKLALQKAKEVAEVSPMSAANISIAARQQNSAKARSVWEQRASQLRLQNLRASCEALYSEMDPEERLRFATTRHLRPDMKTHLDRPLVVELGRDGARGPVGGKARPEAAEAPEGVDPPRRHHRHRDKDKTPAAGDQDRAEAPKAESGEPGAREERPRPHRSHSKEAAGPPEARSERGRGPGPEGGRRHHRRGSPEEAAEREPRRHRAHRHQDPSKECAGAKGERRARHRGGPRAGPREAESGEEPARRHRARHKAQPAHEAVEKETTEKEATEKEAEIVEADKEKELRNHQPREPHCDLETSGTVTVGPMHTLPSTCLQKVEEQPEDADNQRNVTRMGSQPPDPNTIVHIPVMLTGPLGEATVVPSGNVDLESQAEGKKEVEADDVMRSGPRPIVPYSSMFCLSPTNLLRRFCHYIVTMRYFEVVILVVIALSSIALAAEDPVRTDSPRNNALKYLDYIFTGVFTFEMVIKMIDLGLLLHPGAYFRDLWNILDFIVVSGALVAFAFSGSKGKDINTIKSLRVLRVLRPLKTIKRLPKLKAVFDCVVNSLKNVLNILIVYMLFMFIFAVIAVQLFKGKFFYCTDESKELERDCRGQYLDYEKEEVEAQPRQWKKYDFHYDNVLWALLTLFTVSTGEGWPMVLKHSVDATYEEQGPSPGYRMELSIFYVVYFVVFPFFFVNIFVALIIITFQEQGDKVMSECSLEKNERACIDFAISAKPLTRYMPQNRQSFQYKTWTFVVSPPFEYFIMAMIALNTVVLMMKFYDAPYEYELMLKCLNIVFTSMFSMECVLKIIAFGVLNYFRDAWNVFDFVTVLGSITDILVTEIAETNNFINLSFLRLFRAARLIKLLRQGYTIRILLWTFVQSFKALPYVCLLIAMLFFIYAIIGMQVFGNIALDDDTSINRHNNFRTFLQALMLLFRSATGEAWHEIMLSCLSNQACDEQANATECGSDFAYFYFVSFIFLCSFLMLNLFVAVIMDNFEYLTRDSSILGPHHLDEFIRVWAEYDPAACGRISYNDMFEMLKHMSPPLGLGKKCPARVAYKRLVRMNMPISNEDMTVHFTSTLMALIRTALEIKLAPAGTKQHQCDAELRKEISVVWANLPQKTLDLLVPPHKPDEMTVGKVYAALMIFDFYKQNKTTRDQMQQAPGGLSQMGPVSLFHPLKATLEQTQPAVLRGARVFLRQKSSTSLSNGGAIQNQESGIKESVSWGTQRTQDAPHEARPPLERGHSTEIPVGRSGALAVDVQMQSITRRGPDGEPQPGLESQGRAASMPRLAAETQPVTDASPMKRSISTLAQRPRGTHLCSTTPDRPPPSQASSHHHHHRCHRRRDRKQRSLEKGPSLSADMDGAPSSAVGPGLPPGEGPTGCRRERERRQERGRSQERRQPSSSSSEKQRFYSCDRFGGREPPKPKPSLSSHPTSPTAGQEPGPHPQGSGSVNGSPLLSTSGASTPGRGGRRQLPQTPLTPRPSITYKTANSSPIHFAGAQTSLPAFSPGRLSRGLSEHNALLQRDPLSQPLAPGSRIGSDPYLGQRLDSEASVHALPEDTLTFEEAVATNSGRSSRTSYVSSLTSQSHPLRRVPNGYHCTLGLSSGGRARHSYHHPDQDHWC
T2 sequence (Q02410 whole entry): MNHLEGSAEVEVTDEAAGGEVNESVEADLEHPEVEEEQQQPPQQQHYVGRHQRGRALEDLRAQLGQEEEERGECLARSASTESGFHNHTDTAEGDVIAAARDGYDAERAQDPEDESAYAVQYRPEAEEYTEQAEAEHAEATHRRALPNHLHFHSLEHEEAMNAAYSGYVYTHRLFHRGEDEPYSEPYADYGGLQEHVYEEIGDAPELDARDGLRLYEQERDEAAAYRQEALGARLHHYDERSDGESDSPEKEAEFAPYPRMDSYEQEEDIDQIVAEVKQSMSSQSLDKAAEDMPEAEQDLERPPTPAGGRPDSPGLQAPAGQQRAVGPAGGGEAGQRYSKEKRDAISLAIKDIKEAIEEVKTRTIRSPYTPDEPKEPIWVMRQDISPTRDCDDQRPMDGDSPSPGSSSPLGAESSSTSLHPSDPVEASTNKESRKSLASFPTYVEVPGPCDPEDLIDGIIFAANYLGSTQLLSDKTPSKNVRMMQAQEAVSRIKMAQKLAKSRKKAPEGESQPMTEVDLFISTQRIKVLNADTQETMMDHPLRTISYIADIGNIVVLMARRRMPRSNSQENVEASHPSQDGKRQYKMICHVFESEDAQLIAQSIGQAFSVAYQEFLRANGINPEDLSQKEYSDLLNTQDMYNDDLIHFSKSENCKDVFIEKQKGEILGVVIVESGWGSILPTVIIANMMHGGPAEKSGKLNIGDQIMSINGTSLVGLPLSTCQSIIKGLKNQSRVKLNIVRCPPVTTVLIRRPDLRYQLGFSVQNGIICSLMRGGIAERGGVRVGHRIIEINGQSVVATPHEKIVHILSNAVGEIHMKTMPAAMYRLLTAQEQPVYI
Sequence of DNA dC->dU-editing enzyme APOBEC-3A (P31941 whole entry): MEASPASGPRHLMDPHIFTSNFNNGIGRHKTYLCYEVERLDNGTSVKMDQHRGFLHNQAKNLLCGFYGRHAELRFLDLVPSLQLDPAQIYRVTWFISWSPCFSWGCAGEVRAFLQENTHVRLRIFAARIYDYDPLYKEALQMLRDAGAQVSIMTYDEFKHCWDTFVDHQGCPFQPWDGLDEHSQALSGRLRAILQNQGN
Sequence of Nonstructural protein 1 (Q194T2 whole entry): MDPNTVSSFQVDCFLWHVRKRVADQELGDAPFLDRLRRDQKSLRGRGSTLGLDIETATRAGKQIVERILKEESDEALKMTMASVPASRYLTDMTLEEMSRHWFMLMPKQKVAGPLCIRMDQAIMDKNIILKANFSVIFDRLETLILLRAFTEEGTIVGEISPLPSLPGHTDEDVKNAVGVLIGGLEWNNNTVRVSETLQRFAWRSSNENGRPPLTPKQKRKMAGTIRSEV

CCOC(=O)c1c(-c2ccc(C)o2)csc1NC(=S)NC(=O)N(C)C
EC50 [1]: 3.01 µM (active) | AC50 (Cytochrome P450 2D6): inconclusive | IC50 (Beta-galactosidase [2]): > 66.6 µM (inactive)

O=C(N/N=C/c1ccc([N+](=O)[O-])o1)C1CCCCC1
AC50 (Trypanosoma cruzi): 0.501 µM (active) | AC50 [3]: 21.5 µM (active)

CCOc1ccc(N2C(=O)CC(Sc3nnnn3-c3ccccc3)C2=O)cc1 (stereo not drawn)
IC50 [4]: 3.74 µM (active) | AC50 [5]: 11.5 µM (active) | AC50 [6]: 40.3 µM (active) | IC50 [7]: 13.4 µM (active) | AC50 [8]: 12.1 µM (active) | IC50 (Beta-galactosidase [2]): > 66.6 µM (inactive)

C(=N\Nc1nncc2ccccc12)/c1ccccn1
EC50 (Protein RecA): 1.29 µM (active) | IC50 (Nonstructural protein 1): 4.45 µM (active) | EC50 [9]: 5.08 µM (inconclusive) | AC50 [10]: 0.478 µM (active) | EC50 (BJ [11]): 10.8 µM (inconclusive) | EC50 (BJ [12]): 4.42 µM (active) | AC50 (INS1): 1.58 µM (active) | AC50 [13]: 4.65 µM (active) | AC50 [14]: 3.19 µM (active) | AC50 [15]: 4.38 µM (active) | EC50 (BJ [16]): 8.71 µM (inconclusive) | AC50 [17]: < 0.26 µM (active) | AC50 [18]: 4.9 µM (active) | CC50 [19]: 6.58 µM (active) | EC50 (BJ [20]): 3.77 µM (active)

CCOCc1cnc(C)nc1NCC(=O)c1c(C)[nH]c2ccc(OC)cc12
IC50 [21]: 5.53 µM (active) | IC50 [22]: 2.59 µM (active)

CCOc1cc(/C=C2\SC(=S)N(C(C(=O)O)c3ccccc3)C2=O)ccc1O (stereo not drawn)
EC50 (Beta-galactosidase [23]): 14.3 µM (active) | IC50 (Aminopeptidase N): 31.8 µM (active) | IC50 [24]: 23.2 µM (inactive) | IC50 (Leucine aminopeptidase): 45.5 µM (active) | pIC50 [25]: < 4.49
